The record followed here is patent US12239132B2, “Compounds and methods for increasing soil nutrient availability” (SOUND AGRICULTURE COMPANY, priority 2018, dated 2025).

For one assay, the system named is soil consortia cultures. Nature of the assay: Acetylene reduction method in soil consortia nitrogen free cultures. The class given is cell-based. The conditions noted are these: 25 ug/mL, Burks-N, 72 h, control nd. The protocol:
One flask culture per soil received an AB09 treatment and the other received a control treatment of water. After 72 h of growth, 5 mL of each culture were analyzed for nitrogenase activity using the acetylene reduction method. […] Soil from agricultural areas was air dried and sieved with a 2 mm sieve. Five hundred milligrams of dried, sieved soil was added to 50 mL of Burks-N media in a 250 mL baffled flask. AB09 was added to 25 ug/mL and water was added in equivalent amounts for controls. Flasks were topped with a foam plug and incubated at 30 C, shaking at 100 rpm. After 72 h, 5 mL of the soil culture was transferred to 20 mL autosampler vials and analyzed for ethylene gas with the acetylene reduction technique and GC/MS as described as above.

Another assay relates to Bacillus megaterium. As to the kind of experiment: Phosphate solubilization assay with Bacillus megaterium (liquid NBRIP, malachite green). The assay is classed as cell-based. The conditions noted are these: 100 ug/mL; for clearing (consumption) of insoluble phosphate in culture tubes, qualitative: B. megaterium in NBRIP. On the procedure:
In some aspects, a compound disclosed herein, e.g., AB09, stimulates bacterial phosphate solubilization activity. […] Cultures of B. megaterium were grown in media containing only insoluble phosphorus with and without a compound such as AB09. At the start of the experiment, there was no detectable difference of orthophosphate levels in the growth media alone and media supplemented with B. megaterium and/or AB09. Orthophosphate was measured after 72 hours of bacterial growth. Specifically, A 5 mL culture of B. megaterium was seeded from a single colony into Nutrient Broth (NB) and grown overnight in a 30° C. shaker. The cell pellet was collected by centrifugation, washed twice and resuspended in water. The concentration of B. megaterium was measured using a Nanodrop OD600 reading. B. megaterium was inoculated into liquid NBRIP media, which contains insoluble tricalcium phosphate as its sole phosphorus source. The final concentration of B. megaterium in the NBRIP media was OD600=0.02 ([…]). NBRIP media was supplemented with ML in a 1% DMSO solution to a final concentration of 100 ug/ML or 1% DMSO (both were filter sterilized through a 0.2 uM filter). Cell counts at the start of the experiment (0 hours) and at 72 hours post inoculation were measured using dilution plating. At the experiment start and after 72 hours of growth, 1 mL of culture was collected from the culture tubes. The supernatant was collected by centrifugation (5 min at 13,000 rpm). The cleared supernatant was diluted […] in molecular grade water and used for orthophosphate analysis. The remaining 4 mL of supernatant were collected by centrifugation for pH readings. Orthophosphate was measured using the malachite-green phosphate method (BioAssay Systems Malachite Green Phosphate Assay Kit Catalog No: POMG-25H). Briefly, the sample is mixed with a solution of Malachite Green and molybdate, which forms a green complex with free orthophosphate from the sample. Data are quantified on a plate reader at 620 nm. Unknown samples were run with a standard curve of known concentrations of orthophosphate. […] Phosphate solubilization in NBRIP culture media is shown at experiment start (0 h) and after 72 hours of shaking at 30° C. The left axis corresponds to box plots and whisker plots of the concentration of solubilized phosphate in the bacterial supernatant. The right axis corresponds to the pH of the supernatant. n=7 culture tubes for each B. megaterium with and without ML, and n=3 culture tubes for no bacteria with and without AB09. The malachite green phosphate assay was performed in triplicate. […] In some instances, disclosed herein are experimental culture tubes of B. megaterium growing in NBRIP without ML (AB09; leftmost two tubes) and with 100 ug/mL ML (right three tubes).
A strain of Bacillus megaterium (B. megaterium) was isolated from Iowa field soil and confirmed its ability to solubilize phosphorus by observing a cleared zone (or halo) around B. megaterium colonies when grown on solid media (NBRIP+Agar) containing only in insoluble form of phosphorus, Ca3(PO4)2. Cultures of B. megaterium were then grown in liquid NBRIP (containing only insoluble Ca3(PO4)2) with and without AB09. The growth media supernatant was analyzed for orthophosphate at the start of the experiment (0 h) and after 72 hours of growth by the malachite green quantification method.
FIG. 1A illustrates phosphate solubilization in NBRIP culture media at experiment start (0 h) and after 72 hours of shaking at 30° C. The left axis corresponds to box plots and whisker plots of the concentration of available phosphate (orthophosphate) in the bacterial supernatant. […] The malachite green phosphate assay was performed in triplicate. FIG. 1B illustrates an example of experimental culture tubes of B. megaterium growing in NBRIP without AB09 (leftmost two tubes) and with 100 ug/mL AB09 (right three tubes). […]

A further assay has as its system wheat. As to the kind of experiment: Wheat growth on nitrogen free media with nitrogen fixing bacterium. The assay is classed as in vivo. The conditions noted are these: AB09 in combination with a nitrogen fixing bacterium, vs control lacking treatment. On the procedure:
The ability of the AB09 molecule to control useful soil bacteria metabolism has implications for building integrated technology systems and groundbreaking products. In the lab, AB09 was administered in combination with a nitrogen fixing bacterium to nitrogen free media.

Another assay concerns lettuce. Nature of the assay: Field trials in lettuce. The class given is in vivo. The conditions noted are these: field trial.

Entries after “also recorded” stand apart in the source; their conditions may differ.

For the compound `CC1=CC(Oc2c(C)occc2=O)OC1=O` (centres unmarked) [AB09, maltol lactone], the “% Ethylene (nitrogenase activity)” value in the assay with soil consortia cultures (Alpha soil) is 14.5%; with soil consortia cultures (Bennet soil), 0.7%; in the assay on soil consortia cultures (U of I soil), 4.2%. In the assay on Bacillus megaterium (72 hours, concurrent with phosphate solubilization increase), the “pH of the growth media (supernatant)” value is “decrease”. Besides, the “clearing (consumption) of insoluble phosphate in culture tubes, qualitative” value is listed as “increased clearing” with Bacillus megaterium and “Increased consumption” with Bacillus megaterium (listed as ML). Also, the “average concentration of orthophosphate in B. megaterium cultures compared to control cultures” value in the assay with Bacillus megaterium (NBRIP media with insoluble Ca3(PO4)2, 72 hours) is “significantly increased”. The phosphate solubilization increase result in the assay on Bacillus megaterium (NBRIP media, 72 hours, vs control B. megaterium cultures) is on record as “two-fold”. Moreover, in the assay with wheat, the “wheat growth on nitrogen free media” value is listed as “substantially greater; also recorded: more robust growth”. Besides, the “average size of lettuce heads” value in the assay with lettuce is on record as “increased the average size”. Besides, the “increase in lettuce harvest weight” value in the assay on lettuce amounted to 25%.
